From US9839614B2, “Nanoparticle and polymer formulations for thyroid hormone analogs, antagonists, and formulations and uses thereof” (NANOPHARMACEUTICALS LLC, priority 2009, dated 2017)
“And” between values parts separate entries of the source, which are not always exact repeats. Equal entries are not always repeated.

Experiments:
[1] = system: human medullary carcinoma of the thyroid (MTC) xenografts; experiment: MTC xenograft in nude mice; settings: over the course of administration
Protocol: Human medullary carcinoma cells (TT, Catalog No. CRL-1803) were purchased from American Type Culture Collection (Manassas, Va.) and cultured as instructed by the supplier, using a complete growth medium consisting of F-12K medium with 10% FBS. Cells were cultured in 5% CO2/air atmosphere at 37 C to sub-confluence and then treated with 0.25% (w/v) trypsin/EDTA to affect cell release from the culture vessel. After washing with culture medium, the cells were suspended in DMEM (free of phenol red and FBS) and counted. • Tetrac versus tetrac NP distribution in h-MTC. […] Female NCr nude homozygous mice aged 5-6 weeks and body weights of 20 g were purchased form Taconic Farms (Hudson N.Y.). Animals were maintained under specific pathogen-free conditions and housed 4 animals per cage, under controlled conditions of temperature (20-24° C.) and humidity (60-70%) and a 12 h light/dark cycle. Water and food were provided ad libitum.

[2] = system: Human medullary carcinoma of the thyroid (MTC) cells; experiment: Tumor growth and angiogenesis in the CAM cancer implant model; assay type: in vivo, chick; settings: 1 μg/CAM, 8 days, n=8
Source text: Penicillin streptomycin (1%) was present in both culture media. […] Water and food were provided ad libitum.

[3] = system: GL261 murine brain tumor cells; experiment: GL261 single dose 250 kVp x-ray survival (SHMT and LQ analysis); assay type: cell-based
Protocol: To irradiate 25 cm^2 flasks, an x-ray machine was used and (Philips 250 kVp Therapeutic X-ray Machine, Einhoven, […]) operated at 250 kVp and 15 mA with added filtration of 0.4 mm Thoreaus filter. The target to source distance was approximately 30 cm. Dose rates were measured using an R-meter (Victoreen R-meter, Cleveland, Ohio), and converted to absorbed (Gy) doses using appropriate temperature, pressure, and R to Gy conversion factors. The dose rate was 1 Gy per min. Flasks were irradiated at ambient temperature.
For […] analyses, survival data lying at or below 36.8% survival were analyzed by using the log fractional survival (log FxS) versus dose (D). Data were fit using linear regression analysis (SigmaPlot, V. 10, Systat Corp., Point Richmond, Calif.) to obtain the Y-intercept (or n, the extrapolation number) and the slope (1/D0), and their 95% confidence limits. (See Goldstein, A. In: Biostatistics, New York, The MacMillan Co., 1964, p. 140-146). The D0 value (Gy) is defined as the inverse of the slope, and the corrected Dq value (Gy) was then defined using the relationship: Dq(Gy)=ln n×D0(Gy) The 95% confidence limits on Dq were defined using error propagation. (See Chase, et al., In: Principles of Radioisotope Methodology. Minneapolis, Minn. Burgess Publ. Co., 1962, p. 68, 87-90). Statistics: LQ Analysis
For LQ analyses, data lying between a fractional survival of 1.00 and 0.05 were used. The fractional survival data at each dose were transformed using the relationship (−ln F×S/D) and plotted against dose (D). A regression analysis was performed to yield the LQ equation along with their 95% confidence limit values using a t-table with the appropriate (N−1) degrees of freedom. (See Goldstein, A. In: Biostatistics, New York, The MacMillan Co., 1964, p. 140-146).
To determine the tetrac modification factor (TMF), the survival at 2 Gy obtained for control cells was divided by the survival at 2 Gy for tetrac treated cells. The 95% confidence limits on the ratio were determined using error propagation techniques. (See Chase, et al. In: Princiiples of Radioisotope Methodology, Minneapolis, Minn., Burgress Publ. Co., 1962, p. 68, 87-90).

[4] = system: doxorubicin-resistant MCF7/R tumors; experiment: Doxorubicin-resistant tumors in nude mice; assay type: in vivo
Protocol: Mice were injected with doxorubicin-resistant MCF7/R cells (10^6) and after 10 days, they were assigned into groups of seven mice each and challenged with doxorubicin (2 mg/kg) or Tetrac (30 mg/kg) either alone or in combination. Tumor volume was measured every 3 days for up to three weeks.

TTR = TTR (Homo sapiens, UniProt P02766); settings: cited from earlier work
SKN-SH/R cells = experiment: Senescence and apoptosis in drug resistant cells; assay type: cell-based; settings: 24 h
Protocol: In FIG. 16A, SKN-SH/R cells were subjected to treatment doxorubicin (Dox) alone, Tetrac alone, or the combination of both for 24 h. Expression of p21/WAF1, cleaved caspase-3 (Cl-Casp-3) and beta action were measured by Western blot using specific antibodies.
FIG. 16B discloses the cells were seeded in 24 well plates and treated as mentioned above and expression of the senescence associated beta galactosidase (SA-β-Gal.) was assayed as described in the methods section.
FIG. 16C discloses the cells were seeded on cover slips and treated with the drugs as above for 24 h, after which they were fixed and stained with Hoechst and the percentage of positive cells graphed. The data represent average of 3 determinations±SE.

[5] = system: GL261 murine brain tumor cells; experiment: GL261 growth curve, cell volumes/areas and colony forming efficiency; assay type: cell-based
Protocol: 1×10^5 cells per 25 cm^2 flask at time zero (density 40 cells/mm^2). Three flasks were utilized at each time period. The medium in the flasks was not changed over the duration of the growth curve (unfed cultures). Data were taken daily from day zero to day 11.5 post-seeding and cell numbers, age distributions, and apoptotic percentages were determined. After growth curve shapes (without and with 2 μM tetrac) were determined, irradiation times at 70 and 270 hour post-seeding were chosen.
To obtain exponential and plateau phase cell numbers, we trypsinized ([…] trypsin-EDTA) cells for 5 min at 37° C.
For determination of CCDTs, the cell numbers per flask were determined on a daily basis. A four-day interval in the exponential region of growth to obtain the CCDTs, yielding a total of 12 estimations for analysis was utilized. A regression analysis was performed using the (log) of the cell number versus the linear time in days (SigmaPlot, V. 10, Systat Software, Inc., Point Richmond, Calif.). The log slope value and its standard error (SE) were determined, and the SE was converted to the 95% confidence limits using a two-tailed t-table at N−1 degrees of freedom where N is the number of samples. (See Goldstein, A. In: Biostatistics, New York, The MacMillan Co., 1964, p. 140-146).

[6] = Exponential phase (with Tetrac)
[7] = Unfed plateau Phase (with Tetrac)

In the case of O=C(O)Cc1cc(I)c(Oc2cc(I)c(O)c(I)c2)c(I)c1 [Tetrac, tetraiodothyroacetic acid], the “decrease in tumor tissue hemoglobin content” value [1] is reported as 66%, the tumor growth [2] is reported as “effective inhibition” and the tumor-mediated angiogenesis [2] is reported as “significant inhibition”. For the same molecule, the “SF2 (survival at 2 Gy)” value ([3]; Exponential Phase (with Tetrac), 95% confidence limits in parentheses) was 14.2 (10.8-18.8) %, the SHMT n ([3]; Exponential phase (with Tetrac 2 μM, 1 h)) was 1.06 and the “LQ α (Gy^−1)” value [3, 6] was 0.930 Gy^−1. The “LQ β (Gy^−2)” value [3, 6] was 0.003 Gy^−2, the “SHMT D0 (Gy)” value [3, 6] was 1.08 Gy and 1.08 (0.09). Gy and the “sensitization of hypoxic or oxic cells” value ([3]; Tetrac 2 μM) was “sensitize both oxic and hypoxic cells equally”. For the same molecule, the “LQ α (Gy^−1)” value [3, 7] was 1.157 Gy^−1, the “LQ β (Gy^−2)” value [3, 7] was 0.066 Gy^−2 and the “SF2 (survival at 2 Gy)” value [3, 7] was 7.6%. For the same molecule, the “SHMT D0 (Gy)” value [3, 7] was 0.75 Gy, the “SHMT Dq (Gy)” value [3, 7] was 0.00 Gy and the SHMT n [3, 7] was 1.04. For the same molecule, the “increase of D0” value ([3]; exponentially growing cells) was 15%, the “reduction of Dq” value ([3]; exponentially growing cells) was 100% and the “reduction of extrapolation number n” value ([3]; exponentially growing cells) was 93%. The “survival of Tetrac treated cells at 2 Gy” value ([3]; non-Tetrac treated cells 32% (FIG. 57)) was 13%, the “reduction of D0” value ([3]; plateau phase cells) was 6% and the “reduction of Dq” value ([3]; plateau phase cells) was 100%. The “growth of drug resistant tumors” value ([4]; Tetrac 30 mg/kg) was “effective in suppressing the growth of drug resistant tumors”, the toxic effect ([4]; Tetrac 30 mg/kg) was “without any noticeable toxic effect” and the doxorubicin-sensitivity in vivo ([4]; Tetrac with doxorubicin 2 mg/kg) was “not restored”. The “affinity of TTR for Tetrac relative to that for T4” value (TTR) was 100 times, the “doxorubicin-induced proliferation arrest, SA-β-Gal and cell death” value (SKN-SH/R cells) was “dramatically enhanced” and the “decrease of final saturation density” value ([5]; 2 μM Tetrac) was “about 50%”. For the same molecule, the “saturation density of control relative to tetrac-treated cells” value ([5]; 2 μM Tetrac) was “approximately 2.4 times”, the “cell culture doubling time, Tetrac-treated GL261 cells” value ([5]; 2 μM Tetrac, exponential growth) was 43.8 ± 3.8 h and 43.8 h and the “onset of exponential growth” value ([5]; 2 μM Tetrac, control 20 hours) was “about 40 hours”. The “Mean nuclear area (μm^2)” value ([5]; Exponential Cells (+Tetrac)) was 1180 μm^2, the “Median Volume (μm^3)” value ([5]; Exponential Cells (+Tetrac)) was 3850 μm^3 and the “Median cell area (μm^2)” value ([5]; Exponential Cells (+Tetrac)) was 2814 μm^2. The “nuclear/cell area (%)” value ([5]; Exponential Cells (+Tetrac)) was 42%, the “Mean nuclear area (μm^2)” value ([5]; Plateau phase Cells (+Tetrac)) was 310 μm^2 and the “Median Volume (μm^3)” value ([5]; Plateau phase Cells (+Tetrac)) was 2780 μm^3. The “Median cell area (μm^2)” value ([5]; Plateau phase Cells (+Tetrac)) was 700 μm^2, the “nuclear/cell area (%)” value ([5]; Plateau phase Cells (+Tetrac)) was 44% and the “CFE (%)” value ([5]; Plateau phase Cells (+Tetrac), with feeder cells) was 8.8%. For the same molecule, the “cell size relative to control GL261 cells” value ([5]; exponential phase) was 1.4 times and the “cell size relative to control GL261 cells” value ([5]; plateau phase) was 1.9 times.
